From US12440475B2, “Hodgkin lymphoma therapy” (priority 2016, dated 2025)
Several values for one entry are separate records, joined by “and”; a condition that tells them apart may be missing. Equal entries are not always repeated.

Legend:
L428 cells = assay: L428 xenograft in NSG mice, histopathology (HE staining and CD30 immunohistochemistry); format: in vivo; design: key to Liver, Tumor cell infiltration, focal/multifocal (score per animal) / Liver, Tumor cell necrosis/Apoptosis (score per animal) / Eye and/or periocular mucosa, periocular tumor cell infiltration, focal/multifocal/diffuse (score per animal) / Tumor/Eye, Tumor cell necrosis/appotosis (score per animal): 0: within physiological limits; 1: minimal; 2: mild; 3: moderate; 4: marked; 5: severe
From the text: Immunodeficient NOD-SCID-gammac−/− (NSG) mice aged 5 to 6 weeks were purchased from Charles River (NOD.Cg-Prkdcscid II2rgtm1Wjl/SzJ). The mice arrived two weeks before the beginning of the experiments and were housed in micro-isolator cages during the entire course of the study. Immediately prior to the injection of Hodgkin lymphoma cells, mice were exposed to 3 Gy gamma irradiation using an IBL637 ^137Cs irradiator at a dose rate of 0.61 Gy/min. From 10^3 to 10^6 cells, either from the original cell lines or following amplification, were injected intravenously via the retro-orbital sinus. The mice were sacrificed by cervical dislocation and different organs were analysed and tumoural infiltration examined using multiple techniques.
Two independent experiments were performed to investigate the dose-effect of EDO-S101 in NSG mice eight weeks after xenografting with L428 cells as in Example 8. The aim of the protocol shown in FIG. 8B was to evaluate the effect of sequential treatment with a moderate dose of 60 mg/kg given at an interval of three weeks.
The mice were sacrificed by cervical dislocation. The sampled organs consisted of the eyes (site of injection), liver, spleen and bone marrow. Following dissection of different organs, including tumours, the first portion was used for flow cytometry (FACS) and cytogenetic analyses while the second was fixed in 4% paraformaldehyde (PFA) for immunohistochemistry (IHC). To obtain a single cell suspension, the tissues were first cut into pieces. Thereafter, the cells were physically disaggregated using an 80 μm nylon cell strainer and filtered a second time through a 70 μm nylon cell strainer (BD Biosciences, Erembodegem, Belgium).
(§1) Organs were fixed in 4% PFA, trimmed and post-fixed in 70° ethanol. They were then briefly processed using a vacuum inclusion processor and paraffin blocks were prepared. Five micrometer-thick sections were cut from these blocks and the resulting sections were stained with hemotoxylin-eosine (H&E) for histopathological analysis. In addition, IHC was carried out on of the totality of liver and spleen specimens for confirmation of the spread of engrafted cells. The search for single cells or small groups of grafted Hodgkin lymphoma cells was performed using an anti-CD30 antibody (DAKO, France; 1:40, EDTA pH9 pre-treatment) and the Ventana Discovery XT IHC system. Apoptosis and tumour necrosis were analysed.
(§2) Microscopic findings were assigned a severity score based upon the following scale: “0”=within physiological limits, “1”=minimal, “2”=mild, “3”=moderate, “4”=marked, “5”=severe. This severity score was attributed according to the size and number of observed lesions.

L540 = assay: Apoptosis by annexin V-FITC and Hoechst double staining, L540; format: cell-based, human; details: 5 μM, 24 h and 48 h
Protocol: This assay was performed on 7 cell lines (HDLM2 was excluded due to the low number of available cells) at 24 h and 48 h following EDO-S101 treatment (5 μM, DMSO). Control cells were cultured in the same final concentration of DMSO. Only viable cells (using Hoechst staining) were focused on, and all necrotic cells were excluded. Apoptosis was determined using annexin V-FITC and Hoechst (33342) double staining according to the manufacturer's instructions (BD Biosciences). Cell-cycle fractions were determined by Hoechst nuclear staining. Briefly, cells were harvested, washed in PBS, incubated with annexin V-FITC and Hoechst solution for 30 minutes at room temperature. Data were collected using a FACSCalibur flow cytometer (BD Biosciences) and analyzed with FlowJo Version 7.5.5 obtainable from FlowJo, LLC. Results represent the mean value of 3 independent experiments.

[1] = system: Hodgkin lymphoma cell lines (KMH2, HDML2, L540, L1236 and L426); assay: IC50 comparison of bendamustine, vorinostat and EDO-S101, five cell lines; format: cell-based, human
Protocol: • (a) Five Hodgkin lymphoma cell lines (KMH2, HDML2, L540, L1236 and L426) were cultured separately in the presence of bendamustine, vorinostat and EDO-S101 dissolved in DMSO at 37° C. L1236-derived Hodgkin lymphoma cell lines were selected as they have an acquired stable resistance to bendamustine (R100) or an ability to display continuous growth upon extended exposure to sub-lethal concentrations of bendamustine (R25, R50 and R75). A detailed description of the L1236-R Hodgkin lymphoma cell lines is disclosed in De Filippi et al, ASH 2015, Abstract. #2479. In these tests, the L1236-100R bendamustine resistant strain was used. […] Control cells were cultured in the same final concentration of DMSO. The number of viable cells was assessed at 24, 48 and 72 hours through a Countess™ automated cell counter (Invitrogen), each experiment being repeated three times and the results given being the mean of the three results±SD.

[2] = Histopathology of non-tumour findings (lung, spleen) in xenografted NSG mice; format: in vivo; design: key: 0: within physiological limits; 1: minimal; 2: mild; 3: moderate; 4: marked; 5: severe
Protocol: as §1, §2

[3] = system: Hodgkin lymphoma cell lines; assay: Mitotic index and metaphases after EDO-S101 treatment, all cell lines; format: cell-based, human
Protocol: The mitotic index and chromosomal aberrations for each of the cell lines were evaluated after treatment with either 20 μmol or 10 μmol EDO-S101 in DMSO. Each cell line was cultured at 37° C. in the presence of RPMI 1640 supplemented with 10% FCS and antibiotics. Colcemid (0.1 ug/ml) was added 2 h before harvesting and slides with chromosomes in metaphase were prepared following the standard methanol/acetic acid (3/1, v/v) procedure. The slides were stored at −20° C. until use.
FISH was performed using a combination of standard procedures from the recommended protocols for chromosome analysis, following telomere and centromere staining, using PNA probes. In all, 100 metaphases were scored per in vitro dose exposure.
The mitotic index was determined by measurement of the sum of all cells in prophase, metaphase, anaphase and telophase divided by the total number of cells.

## Cn1c(CCCCCCC(=O)NO)nc2cc(N(CCCl)CCCl)ccc21 [EDO-S101]
L428 cells; 80 mg/kg
  tumour masses in liver: No tumour masses were observed in the liver
L428 cells; 80 mg/kg or 60 mg/kg
  tumour cell degeneration (necrosis/apoptosis): No cell necerosis was observed
L428 cells; 1*60 mg/kg, 60 mg/kg
  Eye and/or periocular mucosa, periocular tumor cell infiltration, focal/multifocal/diffuse (score per animal): 5 and 4 (2×) and 3
  Liver, Tumor cell infiltration, focal/multifocal (score per animal): 2 and 1 and 3
  Tumor/Eye, Tumor cell necrosis/appotosis (score per animal): 0 (2×) and 1 (2×)
L428 cells; 1*80 mg/kg
  Eye and/or periocular mucosa, periocular tumor cell infiltration, focal/multifocal/diffuse (score per animal): 5
  Tumor/Eye, Tumor cell necrosis/appotosis (score per animal): 1
L428 cells; 2*60 mg/kg
  Eye and/or periocular mucosa, periocular tumor cell infiltration, focal/multifocal/diffuse (score per animal): 4
  Liver, Tumor cell necrosis/Apoptosis (score per animal): 0
  Tumor tissue, without connection to other organs (per animal): yes
L428 cells; 2*60 mg/kg, 60 mg/kg
  Liver, Tumor cell infiltration, focal/multifocal (score per animal): 1 (3×) and 0 and 2
  Tumor/Eye, Tumor cell necrosis/appotosis (score per animal): 4 and 2 (2×)
L428 cells; single dose of 60 mg/kg
  tumour regression: significant tumour regression
L428 cells; single injection 60 or 80 mg/kg, or two injections of 60 mg/kg three weeks apart
  severity of tumoural cell infiltration: significant decrease in the severity of tumoural cell infiltration
L428 cells; two administrations of 60 mg/kg three weeks apart, versus control and single 60 mg/kg
  tumour regression: Significant tumour regression
L540
  sensitivity for apoptosis: higher sensitivity
[1]; Homo sapiens, range over all cell lines tested, including L1236-R
  IC50: 1000 to 2000 nM
[1]; tumour cells of Hodgkin lymphoma
  IC50s relative to bendamustine: about ten-fold lower than those of bendamustine
[2]; 1*60 mg/kg
  Lung, alveolar histiocytosis (score per animal): 1
[2]; 1*80 mg/kg
  Lung, alveolar histiocytosis (score per animal): 1
[2]; 2*60 mg/kg
  Spleen, red pulp activation, diffuse (score per animal): 3
[3]; 10 μmol
  metaphases observed: only a few metaphases of poor quality
[3]; 20 μmol, any cell line
  metaphases observed: No metaphases were observed
[3]; all Hodgkin lymphoma cell lines, 24 h of treatment
  sensitivity in mitotic index assay: remarkably high sensitivity
